Several values for one entry are separate records, joined by “and”; a condition that tells them apart may be missing. Equal values may be shown once. Read-outs that look alike come from different tables or passages of the source. One block for each compound: values may come before it.
Legend:
[1] = Light scattering: particle size and zeta potential of lipoplexes; type: physicochemical; conditions: pCMVLuc lipoplexes, 5% glucose, N/P 3, 25° C.
Protocol: The average particle size of the liposomes and lipoplexes was measured by photon correlation spectroscopy using a Zetasizer nanoZS apparatus (Malvern Instruments, Paris, France). All measurements were conducted at 25° C. Data were analyzed using the multimodal number distribution software supplied with the instrument. For the preparation of lipoplexes, lipids were freshly solubilized in ethanol (1.24 mM) and deposited (60 μL) at the bottom of a 1.5 mL eppendorf tube. Volatiles were removed under reduced pressure to obtain a dry film. Typically, 404 μL of 60 μM solution of pCMVLuc in 4.5% glucose was added to the lipid. After 30 seconds vortexing and 15 minutes standing at room temperature, the complexes were diluted in 4.5 glucose (1096 μL) for measurements. Value for each sample is the mean of triplicate determinations (±SD).

[2] = system: BHK-21 cells; assay: pDNA (pCMVLuc) transfection in BHK-21 cells; type: cell-based, Syrian hamster; conditions: for pDNA transfection efficiency, in words: BHK-21, pCMVLuc, 10% FCS, N/P 1, 3, 5
Protocol: (§1) Lipids were freshly solubilized in ethanol at 1.24 mM concentration. Typically, 40.40 μL of 60 μM solution of DNA (pCMVLuc) in 4.5% glucose was added to the lipid (either 2.00, 5.85 or 9.75 μL deposited at the bottom of a 500 μL eppendorf tube and dried under vacuum). After gentle vortex agitation (30 sec), the complexes were allowed to stand at room temperature for 30 min before addition (10 μL, i.e. 0.2 μg DNA) into each well (triplicate). Cells were then let to grow in the incubator without further handling. Luciferase gene expression was assessed 24 h later using a commercial kit according to the manufacturer's protocol (Promega, Charbonnières, France). Cells were washed with PBS (100 μL) and lyzed with the Promega lysis buffer (20 μL). After agitation for 15 min, PBS (150 μL) was added. A 5 μL aliquot was transferred to a white microplate and luminescence was recorded for 1 sec with a luminometer (Berthold Centro LB960 XS, Thoiry, France) upon addition of the luciferin substrate (35 μL). Value for each sample is the mean of triplicate determinations (±SD).
The ability to transfect siRNA into U87Luc cells and pCMVLuc pDNA into BHK-21 was assessed for each synthetized analogue as shown in parts A and B hereabove.

[3] = system: A549, Calu-3, and NCI-H292 cell line; assay: pDNA transfection in pulmonary cell lines, statements not tied to one line; type: cell-based; conditions: whatever the cell line considered, pCMVLuc, N/P 1-5
Protocol: as §1
The ability of compounds 1-9 to transfect plasmid DNA was assessed for the following cell lines: A549 cells (alveolar, human lung carcinoma), Calu-3 cells (bronchial, epithelial lung adenocarcinoma), and NCI-H292 cells (bronchial, human lung mucoepidermoid carcinoma). The results concerning transfection activity and LDH release for compounds 1 to 9 are shown in FIGS. 19A, 19B and 19C for cell line A549, Calu-3 and NCI-H292, respectively.

[4] = system: A549, Calu-3, and NCI-H292 cell line; assay: LDH release in pulmonary cell lines, statements not tied to one line; type: cell-based; conditions: cell lines investigated, pDNA lipoplexes
Protocol: Lactate dehydrogenase (LDH) release was used to assess the cytotoxicity of the formulations used in the transfection experiments described as outlined. Typically, at the end of each transfection experiment, the culture medium was removed and placed in another 96-wells plate. LDH activity was measured using a commercial kit (Cytotoxicity Detection Kit Plus, Roche Applied Science) according to the manufacturer's instructions. LDH activity was expressed as the percentage of the maximal LDH release obtained after treatment of the cells with the lysis solution kit (5 μL). Less than 10% LDH release was regarded as a measure of non-significant toxicity. Value for each sample is the mean of triplicate determinations (±SD).

[5] = system: BHK-21 cells; assay: LDH release assay, BHK-21 cells
[6] = Hydrolytic stability of liposomes by 31P-NMR; conditions: Table 3, liposomes
Protocol: For hydrolysis rate measurements using ^31P-NMR, liposomes were obtained by a solvent injection technique. […] The lipids (10 μmol) were dissolved in PrOH (200 μL) and then injected with a syringe with a flow rate of ca. 600 μL/min and a stirring speed of 400 rpm into the appropriate aqueous buffer medium (either Hepes 10 mM pH 7.4 or AcOK/AcOH 10 mM pH 4.5).
The hydrolytic stability of CPDCs/conjugates under neutral and acidic conditions was evaluated in a model experiment involving ^31P-NMR measurements. Phosphotriesters and phosphodiesters display ^31P chemical shifts differing by 5-6 ppm allowing a precise monitoring of the hydrolysis reaction. CPDCs/conjugates were formulated into liposomes using an injection technique.[47] Liposomes were prepared at pH 7.4 and pH 4.5, and incubated at 37° C. and hydrolysis was monitored by ^31P-NMR measurements.
For hydrolysis rate measurements involving ^31P-NMR spectoscopy and BET intercallation assays, liposomes were prepared by a solvent injection technique. A dry lipid film (10 μmol) was dissolved in i-PrOH (200 μL) and then injected with a syringe (flow rate: 600 μL/min) under stirring (stirring speed: 400 rpm) in the middle of the appropriate aqueous buffer medium (either Hepes 10 mM, pH 7.4 or AcOK/AcOH 10 mM, pH 4.5), at 22° C.
The cationic lipids were formulated into liposomes using an injection technique as described hereabove. Liposomes were prepared at pH 7.4 and pH 4.5, and incubated at 37° C. Periodical acquisition of ^31P-NMR spectra allowed determination of the time t, required for 50% hydrolysis (Table 3).

[7] = system: U87-Luc cells; assay: siRNA transfection, luciferase gene silencing; type: cell-based, human; parameters: Percentage of residual luciferase expression, Control siRNA, N/P: 25 / Percentage of residual luciferase expression, Control siRNA, N/P: 50 / Percentage of residual luciferase expression, Control siRNA, N/P: 100: concentration or dose not given beside the values; conditions: for luciferase silencing / siRNA transfection activity, in words: U87-Luc cells, siLuc vs control siRNA, 48 h, 10% FBS
[8] = system: U87Luc cells; assay: LDH release assay, U87Luc cells; type: cell-based, human
[9] = system: BHK-21 cells
[10] = system: Sheep erythrocytes; assay: Erythrocyte leakage (hemolysis) assay; type: cell-based; conditions: 2 h, 37° C.
Protocol: Hemolysis experiments were carried out according to a procedure described elsewhere. For recovery from washing steps, sheep red blood cells were centrifuged at 400 RCF for 10 min, and washed three times with 150 mM NaCl. […] Complete hemolysis was achieved using deionized water yielding the 100% control value. The negative control was obtained by suspension of RBC in phosphate buffer alone. The experiments were performed in triplicate.

[11] = system: 16HBE cells; assay: Cell mitochondrial activity (MTT assay); type: cell-based; conditions: 48 h
Protocol: Cells were grown in culture flasks (Becton-Dickinson) with DMEM culture medium supplemented with 10% FBS, 100 U/mL penicillin, 100 mg/mL streptomycin, 2 mM L-glutamine, and 5 mM Hepes. Culture was carried out at 37° C., in a 5% CO2 and humidified atmosphere. At confluence, cells were released with trypsin (0.5% in PBS), counted and transferred into a 96-well plate (Becton-Dickinson) at a density of 6,000 cells/well. On the next day (24 h later), culture medium was changed to fresh DMEM medium supplemented with 10% FBS before addition of lipoplexes (100 μL) prepared as described above. After a 48 h incubation period at 37° C., culture supernatant was removed, cells were carefully washed with PBS and 0.5 mg/mL MTT (1 mL) in complete culture medium was added. After a 2 h incubation period at 37° C., MTT solution was removed and DMSO (1 mL) was added to lyse cells and dissolve reduced MTT. Intensity of MTT reduction was then evaluated by measuring absorbance at 570 nm. Viability of cells treated with lipoplexes was expressed as the percentage of the absorbance measured in untreated cells. Value for each sample is the mean of triplicate determinations (±SD).

Particle size (nm) [1]: 364.3 ± 34.6 nm
Zeta potential (mV) [1]: −18.0 mV
Compound: 1,2-Dioleoyl-sn-glycero-3-{4-[(dodecyloxy)-4-oxobutanoyloxy]methyl}phosphocholine chloride [PP93]
effect of helper lipid DOPE on pDNA transfection efficiency ([2]; BHK-21, lipid/DOPE mixtures, 1:1 molar ratio): unable to assist DNA transfection when mixed with DOPE
pDNA transfection activity, in words [3]: significant transfection activity

Compound: 1,2-Dioleoyl-sn-glycero-3-{1-[(dodecyloxycarbonyl)oxy]-2-methylpropyl}phosphocholine chloride [PP178]
Particle size (nm) [1]: 721.8 ± 65.7 nm
Zeta potential (mV) [1]: +48.5 mV
pDNA transfection efficiency, in words [2]: more effective than control phospholipid EDOPC
pDNA transfection activity, in words [3]: highest cell transfection levels
LDH release / cell toxicity, in words [4]: significant LDH release
LDH release ([5]; BHK-21, Part B pDNA lipoplexes, N/P 1, 3 and 5): 11%
t1/2 (h), time required for 50% hydrolysis ([6]; pH 4.5, 37° C.): 498 h
t1/2 (h), time required for 50% hydrolysis ([6]; pH 7.4, 37° C.): 497 h

Percentage of LDH release, Lipoplex with siRNA (U87Luc), N/P: 25 ([8]; Table 10, N/P 25): −2.36%
Percentage of LDH release, Lipoplex with siRNA (U87Luc), N/P: 50 ([8]; Table 10, N/P 50): −3.13%
Percentage of LDH release, Lipoplex with siRNA (U87Luc), N/P: 100 ([8]; Table 10, N/P 100): −3.29%
Percentage of LDH release, Lipoplex with pDNA (BHK-21), N/P: 1 [9]: 0.15%
Percentage of LDH release, Lipoplex with pDNA (BHK-21), N/P: 3 [9]: 0.76%
Percentage of LDH release, Lipoplex with pDNA (BHK-21), N/P: 5 [9]: 0.46%
Compound: CCCCCCCCC=CCCCCCCCC(=O)OCC(COP(=O)(OCCCCCCCCCCCC)OCC[N+](C)(C)C)OC(=O)CCCCCCCC=CCCCCCCCC (mixture of isomers) [PP514]
Percentage of residual luciferase expression, Control siRNA, N/P: 25 ([7]; Table 8, N/P 25): 100.51%
Percentage of residual luciferase expression, Luc-targeting siRNA, N/P: 25 ([7]; Table 8, N/P 25): 103.75%
Percentage of residual luciferase expression, Control siRNA, N/P: 50 ([7]; Table 8, N/P 50): 98.50%
Percentage of residual luciferase expression, Luc-targeting siRNA, N/P: 50 ([7]; Table 8, N/P 50): 101.21%
Percentage of residual luciferase expression, Control siRNA, N/P: 100 ([7]; Table 8, N/P 100): 94.58%
Percentage of residual luciferase expression, Luc-targeting siRNA, N/P: 100 ([7]; Table 8, N/P 100): 99.76%
luciferase silencing / siRNA transfection activity, in words [7]: totally inefficient to transfect siRNA
pDNA transfection efficiency, in words [2]: able to transfect DNA into cells
Luciferase expression (RLU/well), N/P: 1 ([2]; Table 9, N/P 1): 1.49 × 10^7 RLU/well
Luciferase expression (RLU/well), N/P: 3 ([2]; Table 9, N/P 3): 1.26 × 10^7 RLU/well
Luciferase expression (RLU/well), N/P: 5 ([2]; Table 9, N/P 5): 2.79 × 10^7 RLU/well

Compound: Triton X-100 [TX100]
concentration achieving full membrane permeation to hemoglobin [10]: 200 µM and 150 to 200 µM
concentration enough to decrease cell viability [11]: 20 to 40 µM

Compound: 1,2-Dioleoyl-sn-glycero-3-{1-[(dodecyloxycarbonyl)oxy]ethyl}phosphocholine chloride [PP120]
Particle size (nm) [1]: 819.3 ± 79.8 nm
Zeta potential (mV) [1]: +62.9 mV
pDNA transfection efficiency, in words [2]: more effective than control phospholipid EDOPC
pDNA transfection activity, in words [3]: significant transfection activity
LDH release / cell toxicity, in words [4]: significant LDH release
t1/2 (h), time required for 50% hydrolysis ([6]; pH 4.5, 37° C.): 27 h
t1/2 (h), time required for 50% hydrolysis ([6]; pH 7.4, 37° C.): 29 h

Percentage of LDH release, Lipoplex with siRNA (U87Luc), N/P: 25 ([8]; Table 7, N/P 25): −1.94%
Percentage of LDH release, Lipoplex with siRNA (U87Luc), N/P: 50 ([8]; Table 7, N/P 50): −1.83%
Percentage of LDH release, Lipoplex with siRNA (U87Luc), N/P: 100 ([8]; Table 7, N/P 100): 4.24%
Percentage of LDH release, Lipoplex with pDNA (BHK-21), N/P: 1 ([5]; Table 7, N/P 1): −0.09%
Percentage of LDH release, Lipoplex with pDNA (BHK-21), N/P: 3 ([5]; Table 7, N/P 3): 5.25%
Percentage of LDH release, Lipoplex with pDNA (BHK-21), N/P: 5 ([5]; Table 7, N/P 5): 2.38%
Compound: CCCCCCCCCCCCCCCC(=O)OC[C@H](COP(=O)(OCCOCCOCCOCCOCCOCCOCCOCCOCCOc1ccc(C(C)(C)CC(C)(C)C)cc1)OCC[N+](C)(C)C)OC(=O)CCCCCCCCCCCCCCC (stereo partly drawn) [PP431]
Percentage of residual luciferase expression, Control siRNA, N/P: 25 ([7]; Table 5, N/P 25): 96.59%
Percentage of residual luciferase expression, Luc-targeting siRNA, N/P: 25 ([7]; Table 5, N/P 25): 107.08%
Percentage of residual luciferase expression, Control siRNA, N/P: 50 ([7]; Table 5, N/P 50): 64.76%
Percentage of residual luciferase expression, Luc-targeting siRNA, N/P: 50 ([7]; Table 5, N/P 50): 75.27%
Percentage of residual luciferase expression, Control siRNA, N/P: 100 ([7]; Table 5, N/P 100): 54.07%
Percentage of residual luciferase expression, Luc-targeting siRNA, N/P: 100 ([7]; Table 5, N/P 100): 54.05%
Luciferase expression (RLU/well), N/P: 1 ([2]; Table 6, N/P 1): 4.90 × 10^5 RLU/well
Luciferase expression (RLU/well), N/P: 3 ([2]; Table 6, N/P 3): 6.45 × 10^6 RLU/well
Luciferase expression (RLU/well), N/P: 5 ([2]; Table 6, N/P 5): 6.75 × 10^6 RLU/well

Compound: CCCCCCCC/C=C\CCCCCCCC(=O)OCC(C[N+](C)(C)C)OC(=O)CCCCCCC/C=C\CCCCCCCC.[Cl-] (stereo not drawn) [DOTAP, 1,2-Dioleoyloxy-3-(N,N,N-trimethylamino)propyl chloride]
luciferase silencing / siRNA transfection activity, in words [7]: unable to assist siRNA silencing activity

Source: US20140243391A1, “PHOSPHOLIPID-DETERGENT CONJUGATES AND USES THEREOF” (CENTRE NATIONAL DE LA RECHERCHE SCIENTIFIQUE, priority 2011, published 2014)
